Measured values reported in patent US8962549B2, “Polymeric benzyl carbonate-derivatives” (Baxter International Inc., priority 2008, dated 2015).

Test: Release of tryptophan from PEG-tryptophan: incubation in cleavage buffer at 37° C., HPLC analysis
Type: physicochemical
Conditions: detection at 280 nm
Protocol: A 0.10 mL aliquot of the PEGylated tryptophan reaction solution from Example 7 was diluted with 0.60 mL PBS buffer (0.10 M, NaCl, 0.10 M, Glycine 0.10M, pH 7.5) and incubated at 37° C. in an oven. Aliquots of 0.10 mL were withdrawn at incubation intervals of 2, 7, 32 and 102 hours, and were quenched with 10 μl of HCl (1.0 N diluted with 0.4 mL 20% acetonitrile containing 0.01% trifluoroacetic acid) for HPLC analysis (0.10 mL injection).
The above procedure was repeated using a cleavage solution with a pH of 8.5 and incubation intervals of 1, 6, 24, and 32 hours.
Both the PEG-tryptophan (Example 7) and cleavage samples were analyzed on C-18 reversed-phase HPLC with detection at 280 nm. The HPLC conditions are the following: C-18 column (Waters Symmetry, 4.6×250 mm), flow rate of 1.0 mL/min, gradient of acetonitrile 20% to 80% over 15 minutes followed by 10 minutes of washing at 80% acetonitrile (all contain 0.01% trifluoroacetic acid).

Compound: N[C@@H](Cc1c[nH]c2ccccc12)C(=O)O [Tryptophan]
- contents (HPLC integration area) of cleavage reaction (pH 7.5 PBS with glycine 0.10 M, incubation time 2 hours): 596
- contents (HPLC integration area) of cleavage reaction (pH 7.5 PBS with glycine 0.10 M, incubation time 7 hours): 647
- contents (HPLC integration area) of cleavage reaction (pH 7.5 PBS with glycine 0.10 M, incubation time 32 hours): 1329
- contents (HPLC integration area) of cleavage reaction (pH 7.5 PBS with glycine 0.10 M, incubation time 102 hours): 2955
- contents (HPLC integration area) of cleavage reaction (pH 8.5 cleavage solution, incubation time 1 hour): 735
- contents (HPLC integration area) of cleavage reaction (pH 8.5 cleavage solution, incubation time 6 hours): 1183
- contents (HPLC integration area) of cleavage reaction (pH 8.5 cleavage solution, incubation time 24 hours): 2442
- contents (HPLC integration area) of cleavage reaction (pH 8.5 cleavage solution, incubation time 32 hours): 2498
